Results as given in ChEMBL document CHEMBL1201862, “PubChem BioAssay data set” (2004).
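Step 1: Grow cells in 96-well plates. Step 2: Expose to compound for 48 hours at 5 concentrations. Step 3: Interpolate endpoints linearly; if unreached, use highest concentration. GI50 is the concentration that inhibits growth by half.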 Activity calls are given as the source filed them. Cut-off read from the data, not from the text of the source: active = GI50 up to about 1.1 µM and inactive = higher.

Tests used:
Assay in all cases: NCI anticancer screen, dose series, 48 h
SF-295 = test system: SF-295
NCI/ADR-RES = test system: NCI/ADR-RES
LXFL 529 = test system: LXFL 529
T47D = test system: T47D
MDA-MB-435 = test system: MDA-MB-435
LOX IMVI = test system: LOX IMVI
HCC 2998 = test system: HCC 2998
BT-549 = test system: BT-549
786-0 = test system: 786-0
CAKI-1 = test system: CAKI-1
DU-145 = test system: DU-145
SN12C = test system: SN12C
HCT-15 = test system: HCT-15
A549 = test system: A549
IGROV-1 = test system: IGROV-1
SK-MEL-5 = test system: SK-MEL-5
COLO 205 = test system: COLO 205
MDA-MB-231 = test system: MDA-MB-231
SR = test system: SR
A498 = test system: A498

Row | Structure (SMILES) | GI50 (SF-295) | GI50 (NCI/ADR-RES) | GI50 (LXFL 529) | GI50 (T47D) | GI50 (MDA-MB-435) | GI50 (LOX IMVI) | GI50 (HCC 2998) | GI50 (BT-549) | GI50 (786-0) | GI50 (CAKI-1) | GI50 (DU-145) | GI50 (SN12C) | GI50 (HCT-15) [µM] | GI50 (A549) | GI50 (IGROV-1) | GI50 (SK-MEL-5) | GI50 (COLO 205) | GI50 (MDA-MB-231) | GI50 (SR) | GI50 (A498)
1 | N#CC(NNC(=O)c1ccccc1O)c1c(O)ccc2ccccc12 (configuration not stated) | 4.78 µM (inactive) | 3.44 µM (inactive) | 3.76 µM (inactive) | 2.96 µM (inactive) | 8.53 µM (inactive) | 0.877 µM (active) | 9.55 µM (inactive) | 7.11 µM (inactive) | 4.56 µM (inactive) | 4.18 µM (inactive) | 2.54 µM (inactive) | 7.64 µM (inactive) | 2.89 | 2.94 µM (inactive) | 4.4 µM (inactive) | 2.67 µM (inactive) | 13.2 µM (inactive) | 3.2 µM (inactive) | 1.46 µM (inactive) | 34.7 µM (inactive)
2 | CSc1cc(C(C)(C)C)ccc1C(O)c1ccc(C(C)(C)C)cc1SC | 10.5 µM (inactive) | – | 13.7 µM (inactive) | – | – | 12 µM (inactive) | 18.2 µM (inactive) | – | 10.8 µM (inactive) | 11.3 µM (inactive) | – | 13.1 µM (inactive) | 7.83 | 10.6 µM (inactive) | 10.1 µM (inactive) | 14.4 µM (inactive) | 11 µM (inactive) | – | 10.2 µM (inactive) | 13.2 µM (inactive)
3 | COc1ccc(NCc2cc(OC)cc(OC)c2)cc1 | 20.8 µM (inactive) | – | 26.2 µM (inactive) | – | – | 25.2 µM (inactive) | 12.1 µM (inactive) | – | 48.1 µM (inactive) | 9.75 µM (inactive) | – | 36.1 µM (inactive) | 10.3 | 17.6 µM (inactive) | 22.5 µM (inactive) | 9.91 µM (inactive) | 9.33 µM (inactive) | – | 13.1 µM (inactive) | 27.5 µM (inactive)
4 | Cc1cccc2cc3cccc(C(=O)NCCN(C)C)c3nc12 | 0.131 µM (active) | – | 0.275 µM (active) | – | – | 0.083 µM (active) | 0.181 µM (active) | – | 0.129 µM (active) | 0.027 µM (active) | – | 0.063 µM (active) | 0.0993 | 0.0171 µM (active) | 0.38 µM (active) | 0.173 µM (active) | 0.0798 µM (active) | – | 0.0224 µM (active) | 0.045 µM (active)
5 | CC(C)CCCC(C)[C@H]1CCC2[C@H]3C(CC[C@@]21C)[C@@]1(C)CCC=C[C@]12C[C@@H]2[C@@H]3O (some centres not stated) | > 100 µM (inactive) | – | > 100 µM (inactive) | – | – | > 100 µM (inactive) | > 100 µM (inactive) | – | > 100 µM (inactive) | > 100 µM (inactive) | – | > 100 µM (inactive) | > 100 | > 100 µM (inactive) | > 100 µM (inactive) | > 100 µM (inactive) | > 100 µM (inactive) | – | > 100 µM (inactive) | > 100 µM (inactive)
6 | C/C(=N\NC(=S)N1CCN(c2ccccn2)CC1)c1nccs1 | 0.822 µM (active) | 0.0339 µM (active) | 0.01 µM (active) | 0.0391 µM (active) | 0.521 µM (active) | 0.405 µM (active) | 0.675 µM (active) | 2.02 µM (inactive) | 0.305 µM (active) | 2.42 µM (inactive) | 0.29 µM (active) | 1.2 µM (inactive) | 0.071 | 0.908 µM (active) | 0.228 µM (active) | 0.219 µM (active) | < 0.0248 µM (active) | 0.022 µM (active) | – | 1.88 µM (inactive)
7 | O=C1/C(=C/c2ccc(O)cc2)CCC1CNc1ccc(Cl)cc1 (configuration not stated) | 2.88 µM (inactive) | 5.45 µM (inactive) | 0.357 µM (active) | – | 3.61 µM (inactive) | 0.27 µM (active) | 3.93 µM (inactive) | 12.6 µM (inactive) | 1.83 µM (inactive) | 1.55 µM (inactive) | 13.3 µM (inactive) | 3.94 µM (inactive) | 1.3 | 7.01 µM (inactive) | 3.21 µM (inactive) | 4.66 µM (inactive) | 1.19 µM (inactive) | 3.04 µM (inactive) | 0.914 µM (active) | 15 µM (inactive)
8 | COC(=O)CC1CC2(C(=O)OC)c3[nH]c4ccccc4c3CCN2C1=O (configuration not stated) | > 100 µM (inactive) | – | > 100 µM (inactive) | – | – | > 100 µM (inactive) | > 100 µM (inactive) | – | > 100 µM (inactive) | > 100 µM (inactive) | – | > 100 µM (inactive) | > 100 | > 100 µM (inactive) | > 100 µM (inactive) | > 100 µM (inactive) | > 100 µM (inactive) | – | > 100 µM (inactive) | > 100 µM (inactive)
9 | CS(=O)(=O)OC1CCC2(C#N)CCC1C2=O (configuration not stated) | > 100 µM (inactive) | – | > 100 µM (inactive) | – | – | > 100 µM (inactive) | 46.1 µM (inactive) | – | 79.6 µM (inactive) | > 100 µM (inactive) | – | > 100 µM (inactive) | 12.1 | > 100 µM (inactive) | > 100 µM (inactive) | > 100 µM (inactive) | 70.8 µM (inactive) | – | 19.8 µM (inactive) | > 100 µM (inactive)
10 | CCCCCCCCCCCCCCCCCCN(C)CC(COP(=O)([O-])OCC[N+](C)(C)C)OC (configuration not stated) | 7.83 µM (inactive) | > 64 µM (inactive) | 8.67 µM (inactive) | > 80.7 µM (inactive) | > 46.9 µM (inactive) | 10 µM (inactive) | 6.75 µM (inactive) | 38.5 µM (inactive) | 6.89 µM (inactive) | 5.27 µM (inactive) | 31.5 µM (inactive) | 27.4 µM (inactive) | 7.67 | 22.8 µM (inactive) | 3.1 µM (inactive) | 27.9 µM (inactive) | 2.91 µM (inactive) | 57.1 µM (inactive) | 2.44 µM (inactive) | 13.6 µM (inactive)
